This note sets out measurements from patent US10385321B2, “MRP-14 targeting peptides and uses thereof” (priority 2016, dated 2019).

Data set [1] addresses T1, MRP-14 (Homo sapiens, UniProt P06702).
T1 construct: purchased Novus Biologicals
T1 sequence (P06702 1-114): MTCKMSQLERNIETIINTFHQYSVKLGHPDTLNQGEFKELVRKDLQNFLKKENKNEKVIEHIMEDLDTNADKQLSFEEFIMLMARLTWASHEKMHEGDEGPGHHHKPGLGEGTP
As to the kind of experiment: SPR binding of peptides to immobilized His-tagged MRP-14. To be noted: for SPR binding behaviour (in words): sensorgrams, immobilized MRP-14. The protocol: Shortlisted MRP-14 targeting peptides (MTPs) were synthesized with a GGGS spacer and C-terminal amidation (Genscript) and their binding affinities characterized by SPR using Biacore T100 (GE Healthcare). PBST (0.05% Tween 20), pH 7.4 containing […] ethylenediaminetetraacetic acid (EDTA) was used as the running buffer. NTA sensor chips (GE Healthcare) were charged with 0.5 mM NiCl2 solution for 2 minutes at a flowrate of 10 μL/min, then 10 μg/mL His-tagged MRP-14 was bound for 2 minutes at 10 μL/min. For testing affinity to MRP-8/14, untagged MRP-8 (Novus Biologicals) was premixed in a 1:1 ratio with His-tagged MRP-14 for 3 hours in the presence of 0.1 mM CaCl2. Peptides at concentrations ranging from 6.25 μM to 100 μM diluted in running buffer were then injected at 30 μL/min for 1 minute association followed by 1 minute dissociation. Affinity was calculated by fitting a saturation binding curve to the equilibrium response vs. peptide concentration graph.
Their binding affinity to MRP-14 was then quantified using surface plasmon resonance (SPR) with an NTA sensor chip. After charging with Ni^2+, His-tagged MRP-14 was immobilized on the chip.
Background: Surface plasmon resonance follows binding to a sensor surface in real time, without labels.

For data set [2], the target named is T1, MRP-14. Put plainly: Phage ELISA on MRP-14-coated plates. It counts as binding. To be noted: BSA as background. The protocol:
Phage specificity for MRP-14 was verified by performing an ELISA. Polysorp 96-well plates (Nunc) were coated with 50 μL of 50 μg/mL MRP-14 in 0.1 M NaHCO3, pH 8.6 in a humidified chamber overnight at 4° C. The coated wells and additional wells for phage dilutions were blocked with 5 mg/mL BSA in 0.1 M NaHCO3, pH 8.6 for 1 hour at 4° C. After washing 6 times with TBST (0.5% Tween 20), 8 serial fourfold dilutions from 10^12 phages/mL down to 6×10^7 phages/mL were performed in blocked wells then 100 μL of the phages added to MRP-14-coated wells and incubated for 1 hour at room temperature. […] Finally, HRP activity was detected using 100 μL 2,2′-azino-bis(3-ethylbenzothiazoline-6-sulfonic acid) diammonium salt (ABTS) colorimetric substrate solution (Life Technologies) at room temperature for 30 minutes. Absorbance was measured at 410 nm using a Tecan Infinite 200 plate reader
To narrow down the peptide library to the ones with highest affinity, an enzyme-linked immunosorbent assay (ELISA) was performed with the isolated phages. […] Bound phage was detected using horseradish peroxidase (HRP)-labeled anti-M13 antibodies followed by addition of 2,2′-azino-bis(3-ethylbenzothiazoline-6-sulfonic acid) diammonium salt (ABTS) substrate (FIG. 1). […]
(In general: ELISA stands for enzyme-linked immunosorbent assay.)

The target in the next data set is MRP-8/14 (Homo sapiens, UniProt P06702). As to the kind of experiment: biochemical.
The test system of data set [3] is platelet thrombi in anticoagulated blood on collagen-coated capillaries. Put plainly: Ex vivo shear-induced thrombus formation in perfusion (flow) chamber. To be noted: for effect on shear-induced thrombus formation: particles 50 μg/mL, arterial shear rate 600 s^−1, versus PBS only control. The protocol:
A perfusion chamber (Portola Pharmaceuticals) was used to evaluate the effect of particles on thrombus formation time. Factor Xa inhibitor anticoagulated blood was labeled with […] Rhodamine 6G (Sigma-Aldrich) for 10 minutes. Particles were added at a final concentration of 50 μg/mL and then the blood perfused through human type III collagen-coated rectangular capillaries at an arterial shear rate of 600 s^−. Thrombus formation under flow was then visualized in real time and average fluorescence of platelet aggregation over time quantified.
Particles were added before perfusion at a concentration of 50 μg/mL, and visualization of thrombus formation was achieved through fluorescence signal from cells labeled with Rhodamine 6G (FIG. 5A). After imaging, average pixel intensity of platelet aggregates over time was quantified (FIG. 5B). […] This is a concern when using nanoparticles to target coagulation factors such as platelets and fibrin due to potential incorporation into the coagulation cascade and further aggregation, as illustrated by the use of such particles for mediating hemostasis.

In data set [4] the test system is thrombi in carotid artery. As to the kind of experiment: Photochemical injury mouse model of thrombosis, Maestro fluorescence imaging of carotid arteries. It counts as in vivo, C57BL/6 mice. The conditions noted are these: sCy5-labeled particles 200 μg i.v. before injury; n=3; contralateral artery as control.
Experimental: 8-9 week old male C57BL/6 mice were anesthetized by intraperitoneal injection of 62.5 mg/kg sodium pentobarbital. After anesthesia, peptide-targeted and untargeted TMV particles (200 μg/100 μL) were injected intravenously followed by dissection of the mice to expose the right common carotid artery. Rose Bengal dye (10 mg/mL in PBS) was then administered via tail vein injection and a 540 nm green laser light (1.5 mW, Melles Griot) placed 5 cm from the artery was used to stimulate photochemical injury and induce thrombus formation. A Doppler flow probe (Transonic Systems) was placed under the artery and used to monitor blood flow. The mice were sacrificed after vessel occlusion. The artery and the contralateral control were excised and fixed in formalin, then imaged by Maestro fluorescence imaging to determine targeting of the particles (see below).
(§1) The red fluorescence from sCy5 was imaged using Maestro imager, with 800 ms exposure time for the arteries and 400 ms exposure time for the organs. The signal was filtered with 576 to 621 nm excitation and 635-nm longpass emission filters.
Progressing to the mouse model, the particles were first injected intravenously, then thrombosis was induced through photochemical injury of the carotid artery, specifically through reactive oxygen species formation from the reaction of green laser light with injected Rose Bengal dye. A flow probe was used to monitor the development of thrombosis, and the arteries along with their contralateral control were excised following occlusion of the vessel.
For data set [5] the following is noted: sCy5-labeled particles i.v.; brain, lungs, heart, kidneys, spleen, liver.
Experimental: 8-9 week old male C57BL/6 mice were anesthetized by intraperitoneal injection of 62.5 mg/kg sodium pentobarbital. After anesthesia, peptide-targeted and untargeted TMV particles (200 μg/100 μL) were injected intravenously followed by dissection of the mice to expose the right common carotid artery. […] Additionally, to study the biodistribution of the particles, the brain, heart, lungs, kidneys, spleen, and liver were also excised and imaged with Maestro imager.
as §1
Biodistribution was investigated concurrently with the photochemical injury model. The brain, lungs, heart, kidneys, spleen, and liver were collected and particle clearance examined through Maestro imaging (FIG. 6A).
Setting [6] is: kinetic fitting, 390.625 nM to 12.5 μM of MTP6.

Entries after “also recorded” stand apart in the source; their conditions may differ. Where two headings read alike, the source gives them in different places. Positions of bridges follow the written chain, without caps; N, C: chain ends. Residues, ends and D or L forms follow the SMILES beside them. *: point of attachment. X1 = [N-]=[N+]=NC[C@H](NC(=O)CCC(=O)NCCCOCCOCCOCCCN*)C(=O)O

Sequence of MRP-8/14 (P05109 whole entry partner, one chain of several, the tested form may be a part): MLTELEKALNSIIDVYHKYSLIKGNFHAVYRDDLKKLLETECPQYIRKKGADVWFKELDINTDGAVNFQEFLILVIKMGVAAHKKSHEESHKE
Experimental for MRP-8/14: Shortlisted MRP-14 targeting peptides (MTPs) were synthesized with a GGGS spacer and C-terminal amidation (Genscript) and their binding affinities characterized by SPR using Biacore T100 (GE Healthcare). PBST (0.05% Tween 20), pH 7.4 containing 50 ethylenediaminetetraacetic acid (EDTA) was used as the running buffer. NTA sensor chips (GE Healthcare) were charged with 0.5 mM NiCl2 solution for 2 minutes at a flowrate of 10 μL/min, then 10 μg/mL His-tagged MRP-14 was bound for 2 minutes at 10 μL/min. […] Peptides at concentrations ranging from 6.25 μM to 100 μM diluted in running buffer were then injected at 30 μL/min for 1 minute association followed by 1 minute dissociation. Affinity was calculated by fitting a saturation binding curve to the equilibrium response vs. peptide concentration graph.

With `CC(C)C[C@@H]1NC(=O)CNC(=O)[C@H]([C@@H](C)O)NC(=O)[C@@H]2CCCN2C(=O)[C@@H](NC(=O)[C@H](C)N)CSSC[C@@H](C(=O)NCC(=O)NCC(=O)NCC(=O)N[C@@H](CO)C(N)=O)NC(=O)[C@H](C)NC(=O)[C@H](Cc2c[nH]cn2)NC(=O)[C@H](Cc2c[nH]cn2)NC1=O` [MTP9] (H-ACPTGLHHACGGGS-NH2; disulfide 2-10 (inferred); N-terminus assumed), the “SPR binding behaviour (in words)” value at MRP-14 [1] is recorded as “quick initial interaction followed by a slower binding phase”.
Consider `C[C@H](N)C(=O)N[C@H]1CSSC[C@@H](C(=O)NCC(=O)NCC(=O)NCC(=O)N[C@@H](CO)C(=O)O)NC(=O)[C@H](CO)NC(=O)[C@H](Cc2c[nH]cn2)NC(=O)[C@H](CC(N)=O)NC(=O)[C@H](CC(N)=O)NC(=O)[C@H](CCCCN)NC(=O)[C@@H]2CCCN2C(=O)[C@H](CCCNC(=N)N)NC1=O` [MTP10], for which the “SPR binding behaviour (in words)” value at MRP-14 [1] is “did not really associate with MRP-14”. Moreover, the “phage binding to MRP-14 (in words)” value on MRP-14 [2] is recorded as “one of the best peptides”.
The term Kd denotes the constant that tells how readily two partners part at equilibrium. Regarding `CC(C)[C@@H]1NC(=O)[C@H](CO)NC(=O)[C@H](CC(N)=O)NC(=O)[C@@H](NC(=O)[C@H](C)N)CSSC[C@@H](C(=O)NCC(=O)NCC(=O)NCC(=O)N[C@@H](CO)C(=O)NCCCOCCOCCOCCCNC(=O)CCC(=O)N[C@@H](CN=[N+]=[N-])C(=O)O)NC(=O)[C@H](Cc2c[nH]cn2)NC(=O)[C@H](Cc2c[nH]cn2)NC(=O)[C@H](CCC(N)=O)NC(=O)[C@H](Cc2c[nH]cn2)NC1=O` [MTP6-N3] (H-ACNSVHQHHCGGGS-X1; disulfide 2-10; N-terminus assumed), at MRP-14 [1] (saturation binding curve fit of equilibrium response, peptides 6.25 μM to 100 μM, NTA chip, read-out: Kd (dissociation constant from SPR measurements with MRP-14)), the Kd was determined as 55.7 µM.
With `CC(C)[C@@H]1NC(=O)[C@H](CO)NC(=O)[C@H](CC(N)=O)NC(=O)[C@@H](NC(=O)[C@H](C)N)CSSC[C@@H](C(=O)NCC(=O)NCC(=O)NCC(=O)N[C@@H](CO)C(N)=O)NC(=O)[C@H](Cc2c[nH]cn2)NC(=O)[C@H](Cc2c[nH]cn2)NC(=O)[C@H](CCC(N)=O)NC(=O)[C@H](Cc2c[nH]cn2)NC1=O` [MTP6] (H-ACNSVHQHHCGGGS-NH2; disulfide 2-10 (inferred); N-terminus assumed), the Kd at MRP-14 [1] turned out to be 39.6 µM; at MRP-8/14, 57.6 µM. In data set [3], the “effect on shear-induced thrombus formation” value is “does not appear to block involvement of MRP-14 in thrombosis”.
Consider “MDPHAHNGGGS [Scrambled, reference compound]”, for which, on MRP-14 [1] (saturation binding curve fit of equilibrium response, peptides 6.25 μM to 100 μM, NTA chip), the “Kd (dissociation constant from SPR measurements with MRP-14)” value is recorded as “no”. Besides, the “SPR binding behaviour (in words)” value at MRP-14 [1] is reported as “low non-specific binding”.

B1: TMV-MTP6: MTP6-N3 attached to the exterior of tobacco mosaic virus by CuAAC, approximately 400 MTP6 per particle; sCy5-labeled for imaging (conjugate)
peptide: ACNSVHQHHCGGGS
chain: SYSITTPSQFVFLSSAWADPIELINLCTNALGNQFQTQQARTVVQRQFSEVWKPSPQVTVRFPDSDFKVYRYNAVLDPLVTALLGAFDTRNRIIEVENQANPTTAETLDATRRVDDATVAIRSAINNLIVELIRGTGSYNRSSFESSSGLVWTSGPAT
In the case of B1, the “targeting of thrombi (fluorescence signal in injured artery)” value in data set [4] is “some success with imaging thrombi; also recorded: targeting was observed; also recorded: targeted TMV-MTP6 attachment to the thrombi and no nonspecific accumulation in the contralateral, uninjured artery”. In the data set with MRP-14 [1] (kinetic curve fitting instead of equilibrium fit, read-out: Kd (dissociation constant from SPR measurements with MRP-14), kinetic fit), the Kd was 0.754 µM. In the data set with MRP-14 [1] (setting [6]), the “ka (association rate)” value turned out to be 909.6 M⁻¹ s⁻¹ and the “kd (dissociation rate)” value was determined as 0.0006858 s⁻¹. Further, the “aggregation of particles in blood” value in data set [3] (ex vivo flow model) is listed as “no aggregation observed”. Also, in data set [3], the “effect on shear-induced thrombus formation” value was “some delay in thrombus onset; also recorded: no stimulation of thrombosis; also recorded: no significant effect on thrombosis”. Moreover, the “biodistribution / route of clearance” value in data set [5] is “clearance predominantly through the liver”.
